Measurements: ChEMBL document CHEMBL1201862, “PubChem BioAssay data set” (2004)
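Test compounds were applied to cells in 96-well plates for 48 hours at 5 doses. GI50 is the concentration that inhibits growth by half.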 Active and inactive are the calls of the source. Rule as the data show it: active = GI50 up to about 1.1 µM and inactive = higher.

Tests used:
Test in all cases: NCI tumour cell line growth inhibition, 48 h
[1] = system: LXFL 529
[2] = system: DLD-1
[3] = system: SNB-78
[4] = system: DMS-273
[5] = system: KM-20L2
[6] = system: M19-MEL
[7] = system: XF498
[8] = system: HOP-18
[9] = system: RXF 631

Measured: GI50

O=C(CC1(O)C(=O)Nc2ccccc21)c1ccco1 (configuration not stated)
inactive: [1] > 100 µM | [2] > 100 µM | [3] > 100 µM | [4] > 100 µM | [5] > 100 µM | [6] > 100 µM | [7] > 100 µM

c1ccc2cc(-c3cc4ccccc4s3)ccc2c1
inactive: [8] > 100 µM | [2] > 100 µM | [3] > 100 µM | [4] > 100 µM | [5] > 100 µM | [6] > 100 µM | [7] > 100 µM

O=[N+]([O-])c1cc2c(cc1O)[nH]c1cccc([N+](=O)[O-])c12
inactive: [8] 33.9 µM | [2] > 100 µM | [3] > 100 µM | [4] > 100 µM | [6] > 100 µM | [7] > 100 µM

c1ccc2c(CNCCCN3CCN(CCCNCc4cccc5ccccc45)CC3)cccc2c1
inactive: [1] 1.77 µM | [9] 1.13 µM | [8] 6.21 µM | [2] 1.75 µM | [3] 2.21 µM | [4] 1.97 µM | [5] 1.7 µM | [6] 1.89 µM | [7] 1.77 µM

CCn1c(O)c(C(=O)Nc2cccs2)c(=O)n(CC)c1=S
inactive: [1] 14.9 µM | [9] 19 µM | [2] 33.3 µM | [3] 17.8 µM | [5] 17.7 µM | [6] 19.1 µM

COc1ccc(/C(Cl)=C/c2ccc(Cl)c(Cl)c2)cc1
inactive: [1] 33.8 µM | [8] 16.5 µM | [2] 25.9 µM | [3] 23.6 µM | [4] 24.4 µM | [5] 22.8 µM | [6] 30.6 µM | [7] 22.4 µM

COC(=O)Cc1cc(=O)[nH]c2c1C(=O)CCC2
inactive: [1] > 100 µM | [8] > 100 µM | [2] > 100 µM | [7] > 100 µM

COc1ccc(NC(=O)CC(=O)n2nc(-c3ccccc3)c(/N=N/c3ccccc3C(=O)O)c2-c2ccccc2)cc1
inactive: [1] > 100 µM | [9] > 100 µM | [2] > 100 µM | [4] > 100 µM | [5] > 100 µM | [6] > 100 µM

Nc1nc(SCc2ccccc2Cl)c2ncn(C3OC(CO)C(O)C3O)c2n1 (configuration not stated)
inactive: [1] 50.9 µM | [8] > 100 µM | [2] > 100 µM | [4] 65.6 µM | [5] > 100 µM | [6] > 100 µM

COC1/C(=C\C(C)=O)c2ccccc2N1C(C)=O (configuration not stated)
inactive: [1] > 100 µM | [9] > 100 µM | [8] > 100 µM | [2] > 100 µM | [4] > 100 µM | [5] > 100 µM | [6] > 100 µM | [7] > 100 µM

CSc1cnc2ccccc2c1Sc1c[nH]c2ccccc2c1=O
inactive: [1] 8.67 µM | [8] 14.9 µM | [2] 11.7 µM | [3] 57.3 µM | [4] 8.38 µM | [5] 4.42 µM | [6] 5.22 µM

CCC(=O)c1cn(C)c(=O)c2ccccc12
inactive: [1] > 100 µM | [9] > 100 µM | [2] > 100 µM | [3] > 100 µM | [4] > 100 µM | [5] > 100 µM | [7] > 100 µM

COc1ccc2c(C(=O)O)cc3cc(OC)c(OC)cc3c2c1
inactive: [1] > 100 µM | [9] > 100 µM | [8] > 100 µM | [2] > 100 µM | [3] > 100 µM | [4] > 100 µM | [5] > 100 µM | [6] > 100 µM | [7] > 100 µM

CCOC(=O)C/C(=N\c1cc(C)on1)N(CC)CC.[O-][Cl+3]([O-])([O-])O
inactive: [1] > 100 µM | [2] > 100 µM | [3] > 100 µM | [4] > 100 µM | [5] > 100 µM | [6] > 100 µM | [7] > 100 µM

NC1=NC(=O)C(CC(=O)Nc2ccc([N+](=O)[O-])cc2[N+](=O)[O-])S1 (configuration not stated)
inactive: [1] > 100 µM | [9] > 100 µM | [8] 52 µM | [2] > 100 µM | [3] > 100 µM | [5] > 100 µM | [6] > 100 µM | [7] > 100 µM

O=S(=O)(O)CS(=O)(=O)OCCCl
inactive: [1] > 100 µM | [9] > 100 µM | [8] 81.8 µM | [2] > 100 µM | [3] > 100 µM | [4] > 100 µM | [5] > 100 µM | [6] > 100 µM | [7] > 100 µM

Cc1ccc(C(=O)O/N=C2/CCCCC2CN(C)C)cc1 (configuration not stated)
inactive: [1] > 100 µM | [9] > 100 µM | [8] > 100 µM | [2] > 100 µM | [3] > 100 µM | [4] > 100 µM | [5] > 100 µM | [6] > 100 µM

CC(=O)CC(=O)CCCC(=O)Nc1ccc(Cl)cc1C
inactive: [1] > 100 µM | [9] > 100 µM | [8] > 100 µM | [2] > 100 µM | [3] > 100 µM | [4] > 100 µM | [5] > 100 µM | [6] > 100 µM

COc1ccc2c(c1)[n+]([O-])c(C(N)=O)c(N)[n+]2[O-]
inactive: [1] 66.4 µM | [9] 34 µM | [8] > 100 µM | [2] > 100 µM | [3] > 100 µM | [4] 71.9 µM | [5] 37.2 µM | [6] 73.3 µM

C1CN(c2nnc(N3CCC3)nn2)C1
inactive: [1] 21.3 µM | [9] > 10 µM | [8] > 100 µM | [2] > 100 µM | [3] 57.4 µM | [4] > 43.2 µM | [5] > 44.8 µM | [6] 15.1 µM | [7] 22.2 µM

CC1(SCC(N)C(=O)O)CC(=O)NC1=O (configuration not stated)
inactive: [1] > 100 µM | [3] > 100 µM | [4] > 100 µM | [5] > 100 µM | [6] > 100 µM
